Data from US10266497B2 (ABIDE THERAPEUTICS, INC., priority 2017, dated 2019).
pIC50: −log10 of the molar value.

Experiments:
MAGL [1] = biological target: T1, MAGL (Mus musculus, UniProt O35678); experiment: In vitro competitive activity-based protein profiling, MAGL, mouse; conditions: read-out: MAGL % inh. 1 μM (mouse)
T1 sequence (O35678 1-303): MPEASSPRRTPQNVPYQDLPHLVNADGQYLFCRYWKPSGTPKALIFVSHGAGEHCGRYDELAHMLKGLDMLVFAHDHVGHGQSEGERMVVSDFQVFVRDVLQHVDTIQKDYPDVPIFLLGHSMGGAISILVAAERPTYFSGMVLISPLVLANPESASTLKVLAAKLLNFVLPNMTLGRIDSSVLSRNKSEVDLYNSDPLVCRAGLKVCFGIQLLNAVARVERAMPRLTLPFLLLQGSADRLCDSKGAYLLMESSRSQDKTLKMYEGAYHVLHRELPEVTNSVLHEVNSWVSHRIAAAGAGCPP

FAAH [2] = biological target: T2, FAAH (Homo sapiens, UniProt O00519); experiment: In vitro competitive activity-based protein profiling, FAAH, human; conditions: for inhibition at 1 µM: read-out: FAAH % inh. 1 μM (human)
T2 sequence (O00519 1-579): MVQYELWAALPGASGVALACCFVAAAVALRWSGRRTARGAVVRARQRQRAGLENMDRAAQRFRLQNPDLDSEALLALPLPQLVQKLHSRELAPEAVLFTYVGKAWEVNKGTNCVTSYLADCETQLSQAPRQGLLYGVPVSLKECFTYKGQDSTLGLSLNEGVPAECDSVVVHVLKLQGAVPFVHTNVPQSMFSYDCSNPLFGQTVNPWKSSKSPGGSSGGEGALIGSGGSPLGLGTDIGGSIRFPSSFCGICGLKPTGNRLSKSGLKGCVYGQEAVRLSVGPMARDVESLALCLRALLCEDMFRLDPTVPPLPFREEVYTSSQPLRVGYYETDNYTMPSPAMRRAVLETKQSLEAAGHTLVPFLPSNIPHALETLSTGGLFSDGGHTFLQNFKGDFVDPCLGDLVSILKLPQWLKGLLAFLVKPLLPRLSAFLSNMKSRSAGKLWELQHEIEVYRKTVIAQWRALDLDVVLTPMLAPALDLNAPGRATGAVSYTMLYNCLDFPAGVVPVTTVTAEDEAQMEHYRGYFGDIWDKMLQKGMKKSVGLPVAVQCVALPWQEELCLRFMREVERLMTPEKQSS
Description: (§1) Biological Evaluation In Vitro Competitive Activity-Based Protein Profiling.
(§2) Proteomes (mouse brain membrane fraction for mouse assays; human prefrontal cortex membrane fractions for human assays) (50 mL, 1.0 mg/mL total protein concentration) were preincubated with varying concentrations of inhibitors at 37° C. After 30 min, FP-Rh (1.0 mL, 50 mM in DMSO) was added and the mixture was incubated for another 30 min at 37° C. Reactions were quenched with SDS loading buffer (15 μL—4λ) and run on SDS-PAGE.

FAAH [3] = biological target: T3, FAAH (Mus musculus, UniProt O08914); experiment: In vitro competitive activity-based protein profiling, FAAH, mouse; conditions: read-out: FAAH % inh. 1 μM (mouse)
T3 sequence (O08914 1-579): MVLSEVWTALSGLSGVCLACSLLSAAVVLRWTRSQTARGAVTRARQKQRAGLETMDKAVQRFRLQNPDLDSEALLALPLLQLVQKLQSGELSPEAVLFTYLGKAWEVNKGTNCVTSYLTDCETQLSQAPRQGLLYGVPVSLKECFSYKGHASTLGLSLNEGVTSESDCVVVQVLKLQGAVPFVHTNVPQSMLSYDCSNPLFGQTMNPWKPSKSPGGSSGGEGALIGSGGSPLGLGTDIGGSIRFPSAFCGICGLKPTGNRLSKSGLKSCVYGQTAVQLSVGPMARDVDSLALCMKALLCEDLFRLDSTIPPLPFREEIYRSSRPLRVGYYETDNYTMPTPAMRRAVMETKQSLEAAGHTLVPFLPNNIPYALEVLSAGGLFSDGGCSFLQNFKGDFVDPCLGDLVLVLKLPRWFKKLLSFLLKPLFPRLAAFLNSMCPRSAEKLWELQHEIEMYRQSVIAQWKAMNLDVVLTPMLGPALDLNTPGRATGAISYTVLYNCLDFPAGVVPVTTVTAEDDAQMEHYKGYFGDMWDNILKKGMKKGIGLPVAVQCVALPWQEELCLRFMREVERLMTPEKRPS
Description: as §1, §2

MAGL [4] = biological target: T1, MAGL; experiment: Mouse brain proteomes from inhibitor treated mice (oral gavage, sacrificed 4 h after administration); format: in vivo; set-up: mouse brain membrane fraction for mouse assays; from tissue; host or cells: mouse brain (membrane fraction in vitro; brain proteomes of treated C57Bl/6J mice in vivo); conditions: 5 mg/kg oral gavage, C57Bl/6J mice, brain proteome 4 h after administration, read-out: MAGL % inh. 5 mg/kg (mouse)
FAAH [5] = biological target: T3, FAAH; experiment: Mouse brain proteomes from inhibitor treated mice (oral gavage, sacrificed 4 h after administration), FAAH; format: in vivo; set-up: mouse brain membrane fraction for mouse assays; from tissue; host or cells: mouse brain (membrane fraction in vitro; brain proteomes of treated C57Bl/6J mice in vivo); conditions: 5 mg/kg oral gavage, C57Bl/6J mice, brain proteome 4 h after administration, read-out: FAAH % inh. 5 mg/kg (mouse)
MAGL [6] = biological target: T4, MAGL (Homo sapiens, UniProt Q99685); experiment: In vitro competitive activity-based protein profiling, MAGL, human; conditions: read-out: MAGL % inh. 1 μM (human)
T4 sequence (Q99685 1-303): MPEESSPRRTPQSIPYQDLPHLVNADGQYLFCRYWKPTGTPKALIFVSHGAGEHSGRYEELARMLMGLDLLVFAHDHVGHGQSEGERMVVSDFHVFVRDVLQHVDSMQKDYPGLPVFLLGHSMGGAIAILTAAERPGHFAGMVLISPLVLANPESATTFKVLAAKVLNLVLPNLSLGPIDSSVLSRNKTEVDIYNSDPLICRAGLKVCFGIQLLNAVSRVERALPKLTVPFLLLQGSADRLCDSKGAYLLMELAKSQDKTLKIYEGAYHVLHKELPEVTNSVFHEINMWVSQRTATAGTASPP

Row | Compound | inhibition at 1 µM (MAGL [1]) | pIC50 (FAAH [2]) | inhibition at 1 µM (FAAH [3]) | inhibition at 5 mg/kg (MAGL [4]) | inhibition at 5 mg/kg (FAAH [5]) | inhibition at 1 µM (MAGL [6]) | inhibition at 1 µM (FAAH [2])
1 | O=C(O)c1ccn(C(=O)N2CCN(Cc3cccc(C(F)(F)F)c3N3CCOCC3)CC2)n1 [Example 453, 1-(4-(2-morpholino-3-(trifluoromethyl)benzyl)piperazine-1-carbonyl)-1H-pyrazole-3-carboxylic acid] | > 75% | 5.00 to 6.00 | 0 to 25% | 0 to 25% | 0 to 25% |  | 
2 | O=C(O)c1ccn(C(=O)N2CCN(Cc3ccc(C(F)(F)F)c(N4CC5COCC5C4)c3)CC2)n1 (centres unmarked) [Example 454, 1-(4-(3-(tetrahydro-1H-furo[3,4-c]pyrrol-5(3H)-yl)-4-(trifluoromethyl)benzyl)piperazine-1-carbonyl)-1H-pyrazole-3-carboxylic acid] | > 75% |  | 0 to 25% | 0 to 25% | 0 to 25% | > 75% | 0 to 25%
3 | CN(Cc1ccc(C(F)(F)F)cc1N1CCCC1)C1(C)CCN(C(=O)n2ccc(C(=O)O)n2)CC1 [Example 456, 1-(4-methyl-4-(methyl(2-(pyrrolidin-1-yl)-4-(trifluoromethyl)benzyl)amino)piper-idine-1-carbonyl)-1H-pyrazole-3-carboxylic acid] | > 75% |  | 0 to 25% | 0 to 25% | 0 to 25% | > 75% | 0 to 25%
